These results are taken from patent publication US3996222A, “Piperazine derivatives” (CRC Compagnia de Ricerca Chimica, priority 1972, dated 1976).

Where a name gives a salt, the structure may show the parent alone. Read-outs that look alike come from different tables or passages of the source.

This data set in a line: toxicity per os (LD50). The data set is classed as in vivo. An excerpt: Furthermore, their toxicities are extremely low in comparison with previously known cytostatic and cancer retardant pharmaceuticals.

As for `Clc1ccc(C(c2ccccc2)N2CC[N+]3(CCOCC3)CC2)cc1` (stereo not drawn) [X = Cl, N^1-(4'-chlorobenzhydryl)-N^4-spiro-morpholino-piperazinium chloride-hydrochloride], the LD50 (in general, the dose at which mortality reaches 50%) (in vivo, po, read-out: LD50) is 316 mg/kg.

On to `Clc1ccc(C(c2ccccc2)N2CC[N+]3(CCOCC3)CC2)cc1.[Br-]` (stereo not drawn) [X = Br, N^1-(4'-chlorobenzhydryl) -N^4-spiromorpholinopiperazinium bromide], for which the 50% lethal dose (LD50) turned out to be 308.5 mg/kg.

`Clc1ccc(C(c2ccccc2)N2CC[N+]3(CCOCC3)CC2)cc1` (stereo not drawn) [X = I, N^1-(4'-chlorobenzhydryl)-N^4-spiromorpholinopiperazinium iodide]: the LD50 was found to be 276.7 mg/kg.
